Source: patent US6544991B2, “Compositions and methods for treating bacterial infections” (priority 2000, dated 2003)
Read-outs that look alike come from different tables or passages of the source.

Experiments:
[1] = system: VRSA strains; assay: MIC by agar dilution or microbroth dilution method (NCCLS), VRSA strains; type: cell-based, Staph. aureus; details: VRSA strains (n = 10); for MIC: Staphylococcus aureus
Description: (§1) Bacterial isolates were obtained from human infections. The isolates were maintained frozen in a liquid nitrogen freezer and plated on Trypticase Soy Agar (TSA) plates supplemented with 5% sheep blood. The quality control strain Staph. aureus 29213 was originally acquired from the American Type Culture Collection (Rockville, Md.).
(§2) MICs were determined by an agar dilution method or microbroth dilution method recommended by NCCLS. Synergy was assessed by agar dilution checker-board method. Minimal inhibitory concentrations (MICS) for each separate drug were determined. The fractional inhibitory concentration (FIC) values were calculated by the MIC of Drug A (e.g., sulbactam/ampicillin) and Drug B (e.g., linezolid or arbekacin) in combination/MIC of Drug A or B alone. The FIC index was determined according to the following formula: [formula]
In total, 48 MRSA strains were tested, including ten VRSA strains isolated from five different countries in the world, 33 MRSA strains isolated from ten Japanese university hospitals, and five MRSA type strains from Juntendo University, Department of Bacteriology, Tokyo, Japan.

[2] = system: MRSA strains; assay: MIC by agar dilution or microbroth dilution method (NCCLS); type: cell-based, Staph. aureus; design: MIC50: unit not given beside the values; details: for MIC: Staphylococcus aureus
Description: as §1, §2

[3] = system: Staph. aureus 29213; assay: MIC, quality control strain; type: cell-based; details: Staphylococcus aureus, read-out: MIC Values
Description: as §1, §2

CC(=O)NC[C@H]1CN(c2ccc(N3CCOCC3)c(F)c2)C(=O)O1 [LZD, (S)-N-[[3-[3-fluoro-4-(4-morpholinyl)phenyl]-2-oxo-5-oxazolidinyl]methyl]acetamide]
MIC ([1]; read-out: MICs 50%): 2 µg/mL | MIC ([1]; read-out: MICs 90%): 2 µg/mL | MICs Range [1]: 1 to 2 mg/L | MIC50 ([2]; 48 MRSA strains tested, including ten VRSA strains): 2 | MICs Range ([2]; MRSA strains (n = 38)): 0.5 to 2 mg/L | MIC ([2]; MRSA / NCTC 10442, strain NCTC 10442, read-out: MIC Values): 2 µg/mL | MIC ([2]; MRSA, MRSA strains (n = 38), read-out: MICs 50%): 2 µg/mL | MIC ([2]; MRSA, MRSA strains (n = 38), read-out: MICs 90%): 2 µg/mL | MIC ([2]; MRSA, strain 85/2082, read-out: MIC Values): 2 µg/mL | MIC ([2]; MRSA, strain 99.3700W, read-out: MIC Values): 2 µg/mL | MIC ([2]; MRSA, strain 99.3759V, read-out: MIC Values): 2 µg/mL | MIC ([2]; MRSA, strain AMC 11094, read-out: MIC Values): 2 µg/mL | MIC ([2]; MRSA, strain BM12612(new), read-out: MIC Values): 2 µg/mL | MIC ([2]; MRSA, strain H1, read-out: MIC Values): 2 µg/mL | MIC ([2]; MRSA, strain HIP 5827, read-out: MIC Values): 2 µg/mL | MIC ([2]; MRSA, strain HIP 5836, read-out: MIC Values): 2 µg/mL | MIC ([2]; MRSA, strain HIP 6297, read-out: MIC Values): 2 µg/mL | MIC ([2]; MRSA, strain HIP 7737, read-out: MIC Values): 2 µg/mL | MIC ([2]; MRSA, strain JSCC 340, read-out: MIC Values): 2 µg/mL | MIC ([2]; MRSA, strain JSCC 351, read-out: MIC Values): 2 µg/mL | MIC ([2]; MRSA, strain JSCC 363, read-out: MIC Values): 2 µg/mL | MIC ([2]; MRSA, strain JSCC 381, read-out: MIC Values): 2 µg/mL | MIC ([2]; MRSA, strain JSCC 390, read-out: MIC Values): 2 µg/mL | MIC ([2]; MRSA, strain JSCC 401, read-out: MIC Values): 2 µg/mL | MIC ([2]; MRSA, strain JSCC 413, read-out: MIC Values): 2 µg/mL | MIC ([2]; MRSA, strain JSCC 431, read-out: MIC Values): 2 µg/mL | MIC ([2]; MRSA, strain JSCC 440, read-out: MIC Values): 2 µg/mL | MIC ([2]; MRSA, strain JSCC 451, read-out: MIC Values): 2 µg/mL | MIC ([2]; MRSA, strain JSCC 463, read-out: MIC Values): 2 µg/mL | MIC ([2]; MRSA, strain JSCC 481, read-out: MIC Values): 2 µg/mL | MIC ([2]; MRSA, strain JSCC 490, read-out: MIC Values): 2 µg/mL | MIC ([2]; MRSA, strain JSCC 501, read-out: MIC Values): 2 µg/mL | MIC ([2]; MRSA, strain JSCC 513, read-out: MIC Values): 1 µg/mL | MIC ([2]; MRSA, strain JSCC 531, read-out: MIC Values): 1 µg/mL | MIC ([2]; MRSA, strain JSCC 540, read-out: MIC Values): 1 µg/mL | MIC ([2]; MRSA, strain JSCC 551, read-out: MIC Values): 2 µg/mL | MIC ([2]; MRSA, strain JSCC 563, read-out: MIC Values): 1 µg/mL | MIC ([2]; MRSA, strain JSCC 581 (lacks the mecA gene), read-out: MIC Values): 2 µg/mL | MIC ([2]; MRSA, strain JSCC 590 (lacks the mecA gene), read-out: MIC Values): 2 µg/mL | MIC ([2]; MRSA, strain JSCC 601, read-out: MIC Values): 1 µg/mL | MIC ([2]; MRSA, strain JSCC 640, read-out: MIC Values): 1 µg/mL | MIC ([2]; MRSA, strain JSCC 651, read-out: MIC Values): 2 µg/mL | MIC ([2]; MRSA, strain JSCC 663, read-out: MIC Values): 2 µg/mL | MIC ([2]; MRSA, strain JSCC 681, read-out: MIC Values): 0.5 µg/mL | MIC ([2]; MRSA, strain JSCC 690, read-out: MIC Values): 1 µg/mL | MIC ([2]; MRSA, strain JSCC 701, read-out: MIC Values): 1 µg/mL | MIC ([2]; MRSA, strain JSCC 713, read-out: MIC Values): 2 µg/mL | MIC ([2]; MRSA, strain JSCC 731, read-out: MIC Values): 1 µg/mL | MIC ([2]; MRSA, strain JSCC 740, read-out: MIC Values): 2 µg/mL | MIC ([2]; MRSA, strain JSCC 751, read-out: MIC Values): 2 µg/mL | MIC ([2]; MRSA, strain JSCC 763, read-out: MIC Values): 2 µg/mL | MIC ([2]; MRSA, strain JSCC 781, read-out: MIC Values): 2 µg/mL | MIC ([2]; MRSA, strain JSCC 870, read-out: MIC Values): 2 µg/mL | MIC ([2]; MRSA, strain LIM 2, read-out: MIC Values): 1 µg/mL | MIC ([2]; MRSA, strain Mu 3, read-out: MIC Values): 2 µg/mL | MIC ([2]; MRSA, strain Mu 50, read-out: MIC Values): 2 µg/mL | susceptibility (range of MICs) ([2]; all tested MRSA isolates, including VRSA strains): susceptible range of MICs | MIC ([3]; ATCC29213, strain ATCC 29213, control sample (Ex. 26)): 2 µg/mL | MIC ([3]; ATCC29213, strain ATCC29213, control sample (Ex. 37)): 2 µg/mL
